Source: paper PMC4057896 (Journal of molecular biology, 2014)
“Also recorded” adds a separate entry of the source.

What was measured:
hexon trimer [1] = experiment: Native MS of hexon-pVIn reconstituted from purified hexon and synthetic pVIn; assay type: binding, human adenovirus (Ad5 hexon)
hexon trimer [2] = experiment: Native MS of endogenous hexon-pVIn complexes from heat-disrupted virions; assay type: binding, human adenovirus (Ad5F35)
hexon trimers = details: in vitro; ref [15]; cited from earlier work
[3] = 1:2 hexon:pVIn, pH range 4–9, native MS, triplicate
[4] = 150 mM ammonium acetate pH 5, released fraction

MEDINFASLAPRHGSRPFMGNWQDIGTSNMSGG [pVIn]
strength of hexon-pVIn interaction at cytosolic pH (hexon trimer [1]; [3]): relatively weak
strength of hexon-pVIn interaction at endosomal pH (hexon trimer [1]; [3]): strongest
dissociation of hexon-pVIn towards pH 8 (hexon trimer [1]; 1:2 hexon:pVIn, pVIn 1 µM, hexon trimer 0.5 µM, native MS, 150 mM ammonium acetate, triplicate): near-complete dissociation
residual endogenous pVIn bound to purified hexons (hexon trimer [1]; hexons isolated from virus-infected cells, no synthetic pVIn added, native MS): approximately 3 % of maximum occupancy
binding of pVIn to hexon trimer at pH 5 (hexon trimer [2]; [4]): nearly complete binding; also recorded: fully retained on hexon trimers
pVIn molecules/hexon trimer at pH 5 (hexon trimer [2]; [4]): 3 pVIn molecules/hexon trimer
binding of pVIn to hexon trimer at pH 9 (hexon trimer [2]; 150 mM ammonium acetate pH 9, released fraction): only free hexon trimers were recovered and detected

pVI: 250 aa precursor of human adenovirus minor capsid protein VI
affinity for hexon trimers (hexon trimers): high affinity; also recorded: nanomolar affinity
